Laboratory results from patent US6204220A, “Substituted 2-oxo-3-alkynoic acids and methods of use thereof” (Rutgers, The State University of New Jersey, priority 1999, dated 2001).
Entries after “also recorded” stand apart in the source; their conditions may differ. Where two headings read alike, the source gives them in different places.

Tests used:
[1] = molecular target: T1, Pyruvate decarboxylase from Saccharomyces cerevisiae (Saccharomyces cerevisiae, UniProt P06169); test: Inactivation of pyruvate decarboxylase (PDC); assay type: biochemical
T1 construct: made in house; host or cells: E. coli
T1 sequence (P06169 2-563 limits assumed): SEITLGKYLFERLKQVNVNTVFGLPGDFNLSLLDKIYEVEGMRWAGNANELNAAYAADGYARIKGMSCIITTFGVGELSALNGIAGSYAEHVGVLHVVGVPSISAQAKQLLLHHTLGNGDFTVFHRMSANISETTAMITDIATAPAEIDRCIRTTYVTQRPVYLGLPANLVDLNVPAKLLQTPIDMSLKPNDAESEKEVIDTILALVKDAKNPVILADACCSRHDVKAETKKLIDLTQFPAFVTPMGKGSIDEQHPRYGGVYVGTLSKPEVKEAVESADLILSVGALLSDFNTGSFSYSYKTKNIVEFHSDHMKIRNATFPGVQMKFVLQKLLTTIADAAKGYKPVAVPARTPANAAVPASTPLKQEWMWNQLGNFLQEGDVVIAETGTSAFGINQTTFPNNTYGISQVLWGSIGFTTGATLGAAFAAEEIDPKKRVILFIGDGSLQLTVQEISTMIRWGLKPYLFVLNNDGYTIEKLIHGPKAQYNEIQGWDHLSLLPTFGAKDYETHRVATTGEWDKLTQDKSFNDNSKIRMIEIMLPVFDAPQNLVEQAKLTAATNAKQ
Description: Pyruvate decarboxylase from Saccharomyces cerevisiae was overexpressed in E. coli (Baburina et al., 1994), then purified according to Farrenkopf & Jordan (1992). It was assayed spectrophotometrically by coupling to alcohol dehydrogenase (Holzer et al., 1960).

PDHc = PDHc (Escherichia coli, UniProt P0AFG8); test: Inactivation of 1-lip and 3-lip PDH complexes by 2-oxo-3-alkynoic acids (overall NADH assay); assay type: biochemical, E. coli; set-up: made in house; host or cells: E. coli JRG1342 (PDHc null) with Ptac plasmid pGS501 (1-lip) or pGS523 (3-lip); conditions: for kapp, slower phase of inactivation: PDHc
Text: Bacterial strains and plasmids for PDHc. Derivatives of the PDHc null strain, E. coli JRG1342 contained Ptac expression plasmids encoding PDHc with E2 chains bearing three lipoyl domains (3-lip PDHc; pGS523, the wild type parental complex), or a single lipoyl domain in each E2 subunit (1-lip PDHc; pGS501), and variant 1-lip PDH complexes with mutations in the E1 gene leading to C259S (pGS457) and C259N (pGS596) substitutions (Machado et al., 1992; Machado, 1993).
Purification of PDHc. Cultures for purification of 1-lip and 3-lip PDH complexes were grown at 37° C. in LB medium containing glucose (0.2%) and ampicillin (50 μg/mL). The PDH complexes were induced by adding IPTG to 60 μM as described by Russell et al. (1992). Cells were disrupted by ultrasonic treatment after preincubation with lysozyme (0.6 mg/mL final concentration) for 15 min. The PDHc was sedimented by ultracentrifugation (100,000×g for 3 h) and further purified by chromatography on a
Sephacryl S-400 HR column. Fractions containing PDHc were pooled and treated with ammonium sulfate to 70% saturation. The enzyme was dissolved in buffer A (20 mM potassium phosphate, pH 7.8, 2 mM Na2 EDTA, 1 mM PMSF, and 1 mM benzamidine.HCl) then dialyzed against the same buffer. The PDH complexes were stored in buffer A at -20° C.
(§1) Activity and related measurements on PDHc. The overall enzymatic reaction of the PDH complex was assayed using a Varian DMS 300 spectrophotometer or the Cobas Bio (Roche Diagnostics, Somerville, N.J.) automated centrifugal analyzer, monitoring the pyruvate-dependent reduction of NAD^+ at 340 nm. The reaction medium contained in 1 mL (DMS 300) or 0.25 mL (Cobas-Bio) test volume: 0.1 M Tris-HCl, pH 8.0; 1 mM MgCl2; 2 mM sodium pyruvate; 2.5 mM NAD^+; 0.052-0.2 mM coenzyme A; 0.2 mM ThDP; and 2.6 mM DTT at 27° C. The reaction was initiated either by adding enzyme to a mixture of all other components, or by adding CoA.
(§2) One unit of activity is defined as the amount of NADH produced (μmol) per min per mg protein. The activity of resolved E1 was measured after reconstitution with excess E2-E3 subcomplex using the NADH assay for PDHc activity.
(§3) Inactivation of 1-lip and 3-lip PDH complexes and resolved E1 component by 2-oxo-3-alkynoic acids. Intact 1-lip or 3-lip PDH complexes (0.050-0.1 mg) or resolved E1 component (0.05-0.09 mg) were incubated in the dark with 5 mM MgCl2, […] of 2-oxo-3-alkynoic acids in 20 mM KH2 PO4 buffer, pH 7.5 at room temperature in a total volume 0.5 mL. The initial activity (100%) was assayed prior to the addition of 2-oxo-3-alkynoic acids. Samples (50 μL) were withdrawn periodically and diluted into 1 mL of assay solution, containing all components necessary for assay of the overall activity. The activity of untreated enzyme was stable during the time of inactivation.

[2] = molecular target: T2, Pyruvate oxidase from Lactobacillus plantarum (Lactiplantibacillus plantarum, UniProt P37063); test: Inactivation of pyruvate oxidase (POX); assay type: biochemical; conditions: for kinact/KI: read-out: kc/Ki,c (converted)
T2 construct: purchased Boehringer Mannheim (a gift, not bought)
T2 sequence (P37063 1-603): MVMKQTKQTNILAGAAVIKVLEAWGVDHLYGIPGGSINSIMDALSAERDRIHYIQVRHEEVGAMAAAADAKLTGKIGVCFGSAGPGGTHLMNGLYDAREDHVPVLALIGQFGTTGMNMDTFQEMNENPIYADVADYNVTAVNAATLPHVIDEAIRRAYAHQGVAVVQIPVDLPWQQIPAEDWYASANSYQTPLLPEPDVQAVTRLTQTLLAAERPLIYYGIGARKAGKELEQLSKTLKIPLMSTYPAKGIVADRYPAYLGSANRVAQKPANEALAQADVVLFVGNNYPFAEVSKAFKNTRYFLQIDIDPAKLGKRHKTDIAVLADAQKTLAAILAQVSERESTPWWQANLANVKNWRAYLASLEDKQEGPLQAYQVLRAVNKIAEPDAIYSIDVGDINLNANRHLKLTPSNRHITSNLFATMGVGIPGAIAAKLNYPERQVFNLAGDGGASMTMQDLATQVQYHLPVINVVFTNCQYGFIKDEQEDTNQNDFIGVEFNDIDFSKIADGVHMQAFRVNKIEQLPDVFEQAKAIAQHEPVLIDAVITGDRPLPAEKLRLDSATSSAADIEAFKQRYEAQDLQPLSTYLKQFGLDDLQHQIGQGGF
Description: Pyruvate oxidase from Lactobacillus plantarum was a gift from Boehringer Mannheim and was assayed according to the manufacturer's instructions at 25° C. by measuring the rate of 4-quinonimine production from H2 O2, 3,5-dichlorophenolsulfonic acid and 4-aminoantipyrine in the presence of horseradish peroxidase, at 546 nm, using a Cobas-Bio (Roche Diagnostics, Somerville, N.J.) automated centrifugal analyzer. The assay reaction mixture (total vol. 0.25 mL) contained: 40 mM sodium pyruvate; 50 mM potassium phosphate buffer, pH 6.5 with 10% (v/v) glycerol; 6.8 mM 3,5-dichlorophenolsulfonic acid; 0.03% of 4-aminoantipyrine; and 5u/mL of horseradish peroxidase. The reaction was initiated by adding POX.

[3] = molecular target: T3, PDC from Saccharomyces cerevisiae (Saccharomyces cerevisiae, UniProt P06169); conditions: cited from earlier work; for inhibition of brewer's yeast PDC (in words): Chiu & Jordan, 1994
T3 sequence (P06169 2-563 limits assumed): T1 sequence (P06169 2-563 limits assumed)

[4] = molecular target: T4, POX from Lactobacillus plantarum (Lactiplantibacillus plantarum, UniProt P37063); conditions: cited from earlier work
T4 sequence (P37063 1-603): T2 sequence (P37063 1-603)

PDHc from E. coli = PDHc from E. coli (Escherichia coli, UniProt P0AFG8); conditions: cited from earlier work
resolved E1 [5] = molecular target: T5, resolved E1 (Escherichia coli, UniProt P0AFG8); test: Inactivation of resolved E1 component (activity after reconstitution with E2-E3 subcomplex); assay type: biochemical, E. coli; conditions: for effect on catalytic activity of resolved E1 (in words): data not shown
T5 construct: made in house; host or cells: resolved from PDHc expressed in E. coli JRG1342
Description: Resolution of the E1 component from PDHc. […] PDHc was dialyzed against 50 mM Tris buffer, pH 9.0, containing 0.1 mM benzamidine.HCl, 0.15 M NaCl, 0.1 mM PMSF for 2 h, before applying to a column equilibrated and eluted with the same buffer.
as §1, §2, §3

resolved E1 [6] = molecular target: T5, resolved E1; conditions: read-out: Ki, reversible inhibition of resolved E1; dichorophenolindophenol assay, Lowe & Perham 1984; cited from earlier work
resolved E1 [7] = molecular target: T5, resolved E1; conditions: read-out: Ki E1; calculated from data of Flournoy and Frey (1989); cited from earlier work
E1 = molecular target: T6, E1 (Escherichia coli, UniProt P0AFG8); test: Fluorescence measurements on binding to E1; set-up: species or system E. coli; conditions: 2 mM
T6 construct: made in house; host or cells: resolved from PDHc expressed in E. coli JRG1342
Description: Fluorescence measurements on the binding of 2-oxo-3-butynoic acid to E1. The fluorescence spectrum of apo-E1 (enzyme having no activity in the absence of ThDP) was measured using the SLM8100 spectrofluorimeter at 25° C. The excitation wavelength was 295 nm and the emission spectrum, presumably due to tryptophan, was recorded in the 300-450 nm range in a 1 mL or 3 mL quartz cuvette. The concentration of apo-E1 was 0.05-0.175 mg/mL in 20 mM KH2 PO4 buffer, pH 7.5. The excitation and emission monochromator slit widths were 4 nm. The V.3.0 software and KaleidaGraph computer program were used for data processing. The emission maximum for tryptophan (λ=335 nm) was determined by fitting the points from the peak using the KaleidaGraph computer program.

## CC#CC(=O)C(=O)O [2-oxo-3-pentynoic acid, 2-Oxo-3-pentynoic acid]
[1]
  inhibition / inactivation of PDC (in words): inhibit
PDHc
  Ki: 276 µM
PDHc; 1-lip PDHc, 3 mM inhibitor, 5 mM pyruvate, 1 mM ThDP
  partial protection by pyruvate on slow phase of inactivation: 21%
PDHc; 3 mM inhibitor
  kapp, slower phase of inactivation: 0.048 min⁻¹
PDHc; 4 mM inhibitor
  kapp, slower phase of inactivation: 0.022 min⁻¹
PDHc; pH 7.5, read-out: ki/Ki PDHc
  kinact/KI: 25.3 M⁻¹ s⁻¹
PDHc; read-out: residual activity after 26 min of inactivation, 1-lip PDHc, 3 mM inhibitor, absence of pyruvate
  activity at 3000 µM: 14%
PDHc; read-out: residual activity after 26 min of inactivation, 1-lip PDHc, 3 mM inhibitor, presence of 5 mM pyruvate
  activity at 3000 µM: 35%
[2]
  inhibition / inactivation of POX (in words): inhibit
[2]; POX
  saturation by inhibitor: no
[2]; POX, from linear portion at high inhibitor concentrations (d)
  kinact/KI: 0.207 M⁻¹ s⁻¹
[2]; POX, from linear portion at low inhibitor concentrations (c)
  kinact/KI: 0.0473 M⁻¹ s⁻¹

## O=C(O)C(=O)C=Cc1ccccc1 [2-oxo-4-phenyl-3-butenoic acid, reference compound]
[3]
  inhibition of brewer's yeast PDC (in words): inhibited
PDHc
  inhibition / inactivation of PDHc (in words): no effect

## O=C(O)C(=O)C#Cc1ccccc1 [2-oxo-4-phenyl-3-butynoic acid, reference compound]
[3]
  inhibition of brewer's yeast PDC (in words): inhibited
PDHc
  inhibition / inactivation of PDHc (in words): no effect; also recorded: no inhibition

## CCC(=O)C(=O)O [2-oxobutanoic acid]
[4]; manufacturer's information
  substrate-like activity with POX: fails to show substrate-like activity
PDHc from E. coli; Bisswanger (1981), read-out: Km (substrate of E. coli PDHc)
  Km: 3 mM

## O=C(O)c1cc(SSc2ccc([N+](=O)[O-])c(C(=O)O)c2)ccc1[N+](=O)[O-] [5,5'-dithiobis-(2-nitrobenzoic acid), reference compound]
Resolved E1 [5]
  effect on catalytic activity of resolved E1 (in words): not significantly affected

## O=C(O)C(=O)/C=C/c1ccc(Cl)cc1 [E-4(4-chlorophenyl)-2-oxo-3-butenoic acid, reference compound]
[1]; PDC, read-out: Ki
  Ki: 700 µM
[1]; PDC, read-out: first order rate constant of inactivation (ki) (converted)
  kinact: 0.00633 s⁻¹
[1]; PDC, read-out: ki/Ki (converted)
  kinact/KI: 9 M⁻¹ s⁻¹

## CC(=O)[PH](=O)O [acetylphosphinate]
[3]; PDC from Saccharomyces cerevisiae
  Ki: 470 µM
[4]; POX from Lactobacillus plantarum
  Ki: 50 µM
PDHc from E. coli; PDHc from E. coli
  Ki: 0.15 µM

## O=C(O)C(=O)CBr [bromopyruvate]
Resolved E1 [6]
  Ki: 90 ± 15 µM

## O=C(O)C(=O)CF [fluoropyruvate]
PDHc from E. coli; calculated from data of Flournoy and Frey (1989), read-out: Ki PDHc
  Ki: 33 µM
Resolved E1 [7]
  Ki: 28 µM

## CSS(C)(=O)=O [methylmethanethiolsulfonate, reference compound]
Resolved E1 [5]
  effect on catalytic activity of resolved E1 (in words): not significantly affected

## O=C(O)c1cc[c]([Hg][Cl])cc1 [p-chloromercuribenzoate, reference compound]
Resolved E1 [5]
  molar excess required to inactivate E1: 300 fold molar excess

## CC(=O)C(=O)O [pyruvate, reference compound]
E1; absence of ThDP
  decrease of fluorescence intensity of E1: 21%
E1; with ThDP 0.2 mM and MgCl2 1 mM
  decrease of fluorescence intensity of E1: about 15%
